Assay results: US11452731B2, “Method of treating and preventing loss of cognition” (ENDORECHERCHE, INC., priority 2009, dated 2022)
Marks after values point to notes of the source that are not given here.

Experiments:
[1] = Uterine and vaginal weight in ovariectomized BALB/c mice treated orally for 9 days with or without estrone (Example 3); type: in vivo; details: for inhibition of estrone-stimulated uterine weight / inhibition of vaginal weight (estrone-stimulated): OVX mice + estrone; for stimulation of uterine weight (estrogenic effect) / stimulation of vaginal weight (estrogenic effect): OVX mice, absence of estrone, 10 μg daily (no-effect statements: 1 μg and 10 μg)
Procedure: Female BALB/c mice (BALB/cAnNCrlBR) weighing 18-20 g were obtained from Charles-River, Inc. (St-Constant, Quebec, Canada) and housed 5 per cage in a temperature (23±1° C.)- and light (12 h light/day, lights on at 7:15)-controlled environment. The mice were fed rodent chow and tap water ad libitum. The animals were ovariectomized (OVX) under Isoflurane anesthesia via bilateral flank incisions and randomly assigned to groups of 10 animals. Ten mice were kept intact as controls.
In the second experiment (Table 6), TSE 424 was administered orally by gavage once daily at doses of 1, 3, 10 or 30 μg/animal for 9 days, starting 2 days after ovariectomy. In both experiments, to evaluate the antiestrogenic activity, treatment with estrone (E1, […], s.c. injection, twice daily) was started 5 days post-ovariectomy and was administered for a 6 day-period. Compounds were dissolved in ethanol (4% final concentration) and administered in 0.4% methylcellulose. Mice in the intact and OVX control groups received the vehicle alone (4% ETOH-0.4% methylcellulose) during the 9-day period. The animals were killed by exsanguination at the abdominal aorta on the 11th morning following ovariectomy. The uteri and vagina were rapidly dissected, weighed, and kept in 10% buffered formalin for further histologic examination.

[2] = test system: ZR-75-1 human breast cancer xenografts; experiment: Growth and response of human ZR-75-1 breast tumors in OVX nude mice, 7 antiestrogens for 161 days with or without estrone (Example 8); type: in vivo; details: for increase of average tumor size over baseline (agonistic effect) / tumors in the progression category, % / tumors in the progression category, number of total: absence of estrone, 200 μg daily; for increase of average tumor size over baseline (agonistic effect) / progressing tumors, % of tumors / progressing tumors, number of total / tumors in the progression category, % / tumors in the progression category, number of total: 161 days; for average tumor size above pretreatment values: estrone-stimulated, 50 μg oral daily, 23 weeks; for progressing tumors, % of tumors / progressing tumors, number of total: estrone-supplemented, 50 μg daily
Procedure: ZR-75-1 human breast cancer cells were obtained from the American Type Culture Collection (Rockville, Md.) and cultured in phenol red-free RPMI-1640 medium. […] (Saint-Constant, Québec, Canada). The mice (5 per cage) were housed in vinyl cages equipped with air filter lids, which were kept in laminar airflow hoods and maintained under pathogen-limiting conditions. The photoperiod was 12 hours of light and 12 hours of darkness (lights on at 07:15). Cages, bedding and food (Agway Pro-Lab R-M-H Diet #4018) were autoclaved before use. Water was autoclaved and provided ad libitum. Bilateral ovariectomy was performed under isoflurane-induced anesthesia. […] Randomization and treatments were started one week later. […] The estrone implants were then removed from the animals in the ovariectomized control group (OVX) and in groups that were to receive the antiestrogen alone. […] Tamoxifen was purchased from […]) while toremifene citrate was purchased from Orion (Espoo, Finland). […] The antiestrogen suspensions at the appropriate concentration were prepared each month, stored at 4° C. and used under constant agitation. Powder stock were hermetically stored at 4° C. […] Two perpendicular diameters were recorded and tumor area (mm2) was calculated using the formula: […] Tumor response was assessed at the end of the study or at death of each animal, if it occurred during the course of the experiment. In this case, only data of mice that survived for at least half of the study ([…]) were used in the tumor response analysis.

[3] = Endometrial epithelium thickness in OVX nude mice after 161 days of antiestrogen (Example 8); type: in vivo; details: for inhibition of the stimulatory effect of estrone on epithelial height: 50 μg daily oral, estrone stimulation; for height of uterine epithelial cells, % of the OVX control group value: 200 μg daily, absence of estrone
From the text: The 17 groups included two control groups (OVX and OVX+Estrone), seven groups supplemented with an estrone implant and treated with an antiestrogen and eight other groups that received an antiestrogen alone. The estrone implants were then removed from the animals in the ovariectomized control group (OVX) and in groups that were to receive the antiestrogen alone. […] Tamoxifen was purchased from […]) while toremifene citrate was purchased from Orion (Espoo, Finland). […] The antiestrogen suspensions at the appropriate concentration were prepared each month, stored at 4° C. and used under constant agitation. Powder stock were hermetically stored at 4° C. […] After 161 days of treatment, the remaining animals were anesthetized with isoflurane and killed by exsanguination. […] The uteri were prepared to evaluate endometrial thickness by image analysis performed with Image Pro-Plus (Media Cybernetics, Maryland, USA). […] Hematoxylin- and eosin-stained sections of mice uteri were analyzed. […] Mean epithelial cell height was measured in all animals of each group.

[4] = 3-month treatment of ovariectomized rats: lumbar spine BMD, total body fat, serum cholesterol, ALP (Example 4, experiment 1); type: in vivo, rat; details: OVX rats, 3 months
Procedure: Ten to twelve week-old female Sprague-Dawley rats (Crl:CD(SD)Br) (Charles River Laboratory, St-Constant, Canada) weighing approximately 220-270 g at start of treatment were used. The animals were acclimatized to the environmental conditions (temperature: 22±3° C.; humidity: 50±20%; 12-h light-12-h dark cycles, lights on at 07:15 h) for at least 1 week before starting the experiments. The animals were housed individually and were allowed free access to tap water and a pelleted certified rodent feed (Lab Diet 5002, Ralston Purina, St-Louis, Mo.). Experiments were conducted in an animal facility approved by the Canadian Council on Animal Care (CCAC) and the Association for Assessment and Accreditation of Laboratory Animal Care (AAALAC) in accordance with the CCAC Guide for Care and Use of Experimental Animals.
On day 1 of the study, the animals of the appropriate groups were bilaterally ovariectomized (OVX) under isoflurane anesthesia. The DHEA was applied topically on the dorsal skin as a solution in 50% ethanol-50% propylene glycol while the other tested compounds were administered as suspension in 0.4% methylcellulose by oral gavage. Treatments were initiated on day 2 of the study and were performed once daily during 3 months.
After 3 months (experiment 1) or 26 weeks (experiment 2) of treatment, individual rats under Isoflurane anesthesia had their whole body skeleton and lumbar spine scanned using dual energy x-ray absorptiometry (DEXA; QDR 4500A, Hologic, Waltham, Mass.) and a Regional High Resolution Scan software. The bone mineral density (BMD) of the lumbar spine (vertebrae L2 to L4) and the total body composition (fat percentage) were determined.
After 3 months (experiment 1) or 26 weeks (experiment 2) of treatment, blood samples were collected at the jugular vein from overnight fasted animals (under Isoflurane anesthesia). Samples were processed for serum preparation and frozen at −80° C. until assay. Serum cholesterol levels and alkaline phospatase activity (ALP) were determined using the Boehringer Mannheim Diagnostic Hitachi 911 Analyzer (Boehringer Mannheim Diagnostic Laboratory Systems).

human Ishikawa cells = experiment: Alkaline phosphatase activity in human endometrial adenocarcinoma Ishikawa cells (Example 6); details: for IC50 / Emax: Homo sapiens, Ishikawa, 120 h; for IC50: read-out: Inhibition of 1 nM E2-induced stimulation of alkaline phosphatase IC50; for Emax: read-out: Maximal stimulation of alkaline phosphatase % of 1 nM E2 stimulation; for Maximal inhibition of 1 nM E2-induced stimulation of alkaline phosphatase: Ishikawa cells, 5-day incubation
[5] = OVX + E1, antiestrogen 50 μg daily
[6] = OVX without E1, antiestrogen 200 μg daily
[7] = E2 1 mg/kg, EM-652.HCl 2.5 mg/kg, DHEA 80 mg/kg

Row | IC50 (human Ishikawa cells) [nM] | SMILES | increase of average tumor size over baseline (agonistic effect) [2] | average tumor size above pretreatment values [2] [%] | progressing tumors, % of tumors [2] [%] | progressing tumors, number of total [2] | inhibition of the stimulatory effect of estrone on epithelial height [3] [%] | height of uterine epithelial cells, % of the OVX control group value [3] [%] | ENDOMETRIAL EPITHELIUM THICKNESS (μm) ± SEM [3, 5] | ENDOMETRIAL EPITHELIUM THICKNESS (μm) ± SEM [3, 6] | Emax (human Ishikawa cells) [%] | Maximal inhibition of 1 nM E2-induced stimulation of alkaline phosphatase (human Ishikawa cells) | also measured
1 | – | Oc1ccc2c(c1)CC[C@@H](c1ccccc1)[C@H]2c1ccc(OCCN2CCCC2)cc1 (single isomer, unassigned) [inactive enantiomer of lasofoxifene] | – | – | – | – | – | – | – | – | – | – | inhibition of estrone-stimulated uterine weight ([1]; any dose used (1, 3, 10 μg)): no inhibitory effect; inhibition of vaginal weight (estrone-stimulated) ([1]; any dose used (1, 3, 10 μg)): no inhibitory effect; stimulation of uterine weight (estrogenic effect) [1]: no stimulatory effect; stimulation of vaginal weight (estrogenic effect) [1]: no stimulatory effect
2 | – | CC/C(=C(/c1ccc(OCCN(C)C)cc1)c1cccc(O)c1)c1ccccc1 [Droloxifene, (E)-3-[1-[4-[2-(Dimethylamino)ethoxy]phenyl]-2-phenyl-1-butenyl] phenol] | did not significantly change | 478 | 100 | 23 of 23 | 17 | 101 | 36.71^b,d ± 0.12 μm | 18.50 ± 0.07 μm | – | – | –
3 | – | C[C@]12CC[C@@H]3c4ccc(O)cc4CC[C@H]3[C@@H]1CC[C@@H]2O [E2, 17β-estradiol] | – | – | – | – | – | – | – | – | – | – | ALP (serum alkaline phosphatase activity) [4]: 59 ± 4 IU/L; CHOLESTEROL (serum) [4]: 1.37 ± 0.18 mmol/L; TOTAL FAT [4]: 19.5 ± 2.5 %; LUMBAR SPINE BMD [4, 7]: 0.2457 ± 0.0049 g/cm^2; LUMBAR SPINE Prevention of Bone Loss [4, 7]: 98%
4 | – | CC/C(=C(\c1ccc(I)cc1)c1ccc(OCCN2CCCC2)cc1)c1ccccc1 [Idoxifene, (E)-1-[2-[4-[1-(4-Iodophenyl)-2-phenyl-1-butenyl]phenoxy]ethyl]pyrrolidine] | 125% | 86 | 71 | 20 of 28 | 50 | 176 | 29.35^b,d ± 0.05 μm | 32.14^b,d ± 0.05 μm | – | – | tumors in the progression category, % [2]: 33%; tumors in the progression category, number of total [2]: 8 of 24
5 | 1.87 ± 0.07 | COc1ccc(-c2sc3cc(O)ccc3c2Oc2ccc(OCCN3CCCCC3)cc2)cc1.Cl [LY 353381, 6-hydroxy-3-[4-[2-(1-piperidinyl)ethoxy]phenoxyl]-2-(4-methoxyphenyl) benzo [b] thiophene hydrochloride] | – | – | – | – | – | – | – | – | 15.5 ± 0.25 | 90.25 ± 0.127 (2) | –
6 | 72.1 ± 7.6 | CN(C)CCOc1ccc(/C(=C(/CCCl)c2ccccc2)c2ccc(O)cc2)cc1 [OH-Toremifene, (Z)-(2)-2-[4-(4-chloro-1-(4-hydroxyphenyl)-2-phenyl-1-butenyl)phenoxy]-N,N-dimethylethanamine] | – | – | – | – | – | – | – | – | 29.6 ± 2.1 | 75.73 ± 3.52 (3) | –
7 | 3.39 ± 0.9 | Cl.O=C(c1ccc(OCCN2CCCCC2)cc1)c1c(-c2ccc(O)cc2)sc2cc(O)ccc12 [Raloxifene, [2-(4-hydroxyphenyl)-6-hydroxybenzo[b]thien-3-yl] [4-[2-(1-piperidinyl)ethoxy]phenyl]-methanone hydrochloride] | did not significantly change | 191 | 81 | 21 of 26 | 26 | 122 | 34.72^b,d ± 0.06 μm | 22.33^a ± 0.05 μm | 12.8 ± 1.7 | 94.31 ± 1.74 (5) | inhibition of estrone-stimulated uterine weight ([1]; oral 9 days, 1 μg daily): 6%; inhibition of estrone-stimulated uterine weight ([1]; oral 9 days, 3 μg daily): 14%; inhibition of estrone-stimulated uterine weight ([1]; oral 9 days, 10 μg daily): 43%; inhibition of vaginal weight (estrone-stimulated) ([1]; oral 9 days, 10 μg daily): 24%; stimulation of uterine weight (estrogenic effect) [1]: 85%; stimulation of vaginal weight (estrogenic effect) [1]: 56%
8 | – | CN(C)CCOc1ccc(/C(=C(/CCCl)c2ccccc2)c2ccccc2)cc1 [Toremifene, (Z)-2-[4-(4-Chloro-1,2-diphenyl-1-butenyl)phenoxy]-N,N-dimethylethanamine] | 86% | 230 | 89 | 25 of 28 | 41 | 135 | 31.47^b,d ± 0.04 μm | 24.75^b,c ± 0.04 μm | – | – | tumors in the progression category, % [2]: 21%; tumors in the progression category, number of total [2]: 6 of 28
